Reference: patent US7691572B2, “Method and kit for detecting resistance to antiviral drugs” (priority 1998, dated 2010)
Where two headings read alike, the source gives them in different places.

Experiments:
[1] = biological target: T1, HIV-1 RT (Human immunodeficiency virus type 1 group M subtype B, UniProt P04585); test: Amp-RT assay, AZT-TP and other NRTI-TPs, reference viruses; assay type: biochemical; details: WT HIV-1SUM9
[2] = biological target: HIV-1 RT (Human immunodeficiency virus type 1, UniProt P04585, A649V/F664L/F703Y/Q738M/V662I); test: as above; assay type: biochemical
[3] = biological target: HIV-1 RT (Human immunodeficiency virus type 1, UniProt P04585, F664L/F703Y/Q738M); test: as above; assay type: biochemical
[4] = biological target: HIV-1 RT (Human immunodeficiency virus type 1, UniProt P04585, Q738M); test: as above; assay type: biochemical
[5] = system: HIV-1 RT; test: as above; assay type: biochemical
[6] = biological target: T1, HIV-1 RT; assay type: biochemical; details: read-out: IC50 Amp-RT assay; patient-derived virus 12 (L1), None
Source text: (§1) Four groups of archived HIV-1 specimens with known genotypes were selected for assay validation. These included WT, MNR, MNR carrying unrelated resistance mutations, and non-MNR specimens carrying classical AZT resistance mutations (Schmit et al., “Multiple drug resistance to nucleoside analogues and nonnucleoside reverse transcriptase inhibitors in an efficiently replicating human immunodeficiency virus type 1 patient strain,” J. Infect. Dis. 174: 962-968 (1996); Winters et al., “A 6-base pair insert in the reverse transcriptase gene of human immunodeficiency virus type 1 confers resistance to multiple nucleoside inhibitors,” J. Clin. Invest. 102: 1769-1775 (1998); Adje et al., “High prevalence of genotypic and phenotypic HIV-1 drug-resistant strains among patients receiving antiretroviral therapy in Abidjan, Cote d'Ivoire,” J. Acquired Immune Deficiency Syndromes 26: 501-506 (2001); Weinstock et al., “Prevalence of mutations associated with reduced antiretroviral drug susceptibility among human immunodeficiency virus type 1 seroconverters in the United States, 1993-1998,” J. Infect. Dis. 182: 330-333 (2000)). Forty-four samples were selected which comprised 7 viral stocks and 37 plasma samples obtained from 34 HIV-1-infected persons.

[7] = biological target: HIV-1 RT (Human immunodeficiency virus type 1, UniProt P04585, F664L/S655G/V662I, form not given); assay type: biochemical; details: read-out: IC50 Amp-RT assay; patient-derived virus 15 (L6), S68G, V75I, F77L, K103N, F116Y, Q151M, M184V
Source text: as §1

[8] = biological target: HIV-1 RT (Human immunodeficiency virus type 1, UniProt P04585, Q738M/S655G); assay type: biochemical; details: read-out: IC50 Amp-RT assay; patient-derived virus 13 (L2), S68G, Q151M
Source text: as §1

[9] = biological target: HIV-1 RT (Human immunodeficiency virus type 1, UniProt P04585, S655G/V662I, form not given); assay type: biochemical; details: read-out: IC50 Amp-RT assay; patient-derived virus 14 (L4), A62A/V, S68G, V75I, F77L, F116Y, Q151M
Source text: as §1

[10] = system: HIV-1 RT; assay type: biochemical
Source text: as §1

[11] = system: HIV-1 RT; assay type: biochemical; remark: listed apart in the source
[12] = system: HIV-1 reference viruses; test: culture-based assay, inhibition of HIV-1-induced cytopathic effect; assay type: cell-based
Source text: The IC50 values of AZT-TP for WT and MNR reference viruses determined by the Amp-RT assay were compared with previously reported IC50 values determined by a conventional RT assay and a culture-based phenotypic assay (Ueno et al., “Enzymatic characterization of human immunodeficiency virus type 1 reverse transcriptase resistant to multiple 2′,3′-dideoxynucleoside 5′-triphosphates,” J. Biol, Chem. 270: 23605-23611 (1995); Shirasaka et al., “Emergence of human immunodeficiency virus type 1 variants with resistance to multiple dideoxynucleosides in patients receiving therapy with dideoxynucleosides,” Proc. Nat. Acad. Sci. U.S.A. 92: 2398-2402 (1995)).

[13] = system: patient-derived HIV-1; test: culture-based plaque reduction assay (Schmit et al., 1996); assay type: cell-based
Source text: The results obtained are correlated with the genotypes of the specimens.

[14] = system: HIV-1 RT; details: cited from earlier work
[15] = system: HIV-1 reference viruses; details: read-out: IC50 Culture based assay, cited from earlier work
[16] = system: patient-derived HIV-1; details: read-out: IC50 Culture based assay, cited from earlier work
[17] = system: HIV-1; details: cited from earlier work
[18] = system: HIV-1; details: classical AZT resistance mutations T215Y/F, M41L, D67N, K70R, K219Q/E; cited from earlier work
[19] = HIV1SUM13 (A62V, V75I, F77L, F116Y, Q151M)

Molecule `Cc1cn([C@H]2C[C@H](N=[N+]=[N-])[C@@H](CO)O2)c(=O)[nH]c1=O` [AZT, zidovudine] has an IC50 [1] of 0.5 µM, an IC50 [2] of 18 µM and an IC50 [3] of 11 µM. The IC50 [4] was 2.5 µM, the “fold resistance (IC50) as compared to the mean IC values of WT HIV-1” value (from here on “fold resistance (IC50)”) ([5]; MNR HIV-1SUM8 (Q151M)) was “(5) fold” and the “fold resistance (IC50)” value ([5]; MNR HIV-1SUM12 (F77L, F116Y, Q151M)) was “(22) fold”. The “fold resistance (IC50)” value ([5]; MNR HIV-1SUM13 (A62V, V75I, F77L, F116Y, Q151M)) was “(36) fold”, the IC50 [6] was 0.35 µM and the IC50 [7] was 14.6 µM. The IC50 [8] was 1.35 µM, the IC50 [9] was 8.23 µM and the “fold change from IC50 of WT HIV-1, Amp-RT assay” value (shortened to “fold change … Amp-RT assay”) ([10]; patient-derived virus 13 (L2)) was “(3.9) fold”. The “fold change … Amp-RT assay” value ([10]; patient-derived virus 14 (L4)) was “(23.5) fold”, the “fold change … Amp-RT assay” value ([10]; patient-derived virus 15 (L6)) was “(41.8) fold” and the “fold change from IC50 of WT HIV-1, RT assay” value ([11]; HIV1SUM8 (Q151M)) was “(8.3) fold”. For the same molecule, the “fold change from IC50 of WT HIV-1, RT assay” value ([11]; HIV1SUM12) was “(38) fold”, the “fold change from IC50 of WT HIV-1, RT assay” value ([11]; HIV1SUM13) was “(65) fold” and the “fold change from IC50 of WT HIV-1, Culture based assay” value (from here on “fold change … Culture based assay”) ([12]; HIV1SUM8) was “(10) fold”. The “fold change … Culture based assay” value ([12]; HIV1SUM12) was “(>320) fold”, the “fold change … Culture based assay” value ([12]; HIV1SUM13) was “(>320) fold” and the “fold change … Culture based assay” value ([13]; 13 (L2)) was “(1.5) fold”. For the same molecule, the “fold change … Culture based assay” value ([13]; 14 (L4)) was “(633) fold”, the “fold change … Culture based assay” value ([13]; 15 (L6)) was “(3117) fold” and the IC50 ([14]; HIV1SUM8 (Q151M)) was 0.19 µM. For the same molecule, the IC50 ([14]; HIV1SUM9 (None)) was 0.023 µM, the IC50 ([14]; HIV1SUM12 (F77L, F116Y, Q151M)) was 0.88 µM and the IC50 [14, 19] was 1.5 µM. For the same molecule, the IC50 ([15]; HIV1SUM8 (Q151M)) was 5 µM, the IC50 ([15]; HIV1SUM9 (None)) was 0.5 µM and the IC50 ([15]; HIV1SUM12 (F77L, F116Y, Q151M)) was over 160 µM. For the same molecule, the IC50 [15, 19] was over 160 µM, the IC50 ([16]; 12 (L1), None) was 0.006 µM and the IC50 ([16]; 13 (L2), S68G, Q151M) was 0.009 µM. The IC50 ([16]; 14 (L4), A62A/V, S68G, V75I, F77L, F116Y, Q151M) was 3.8 µM, the IC50 ([16]; 15 (L6), S68G, V75I, F77L, K103N, F116Y, Q151M, M184V) was 18.7 µM and the “reduced susceptibility to AZT” value ([17]; plasma sample HIV-1R598 (D67N, V106A, L214W, L214F, T215Y)) was 100 fold. For the same molecule, the “reduced susceptibility to AZT” value ([17]; specimen no. 40 (T215Y, T69S-EA insertions)) was 100 fold and the “resistance to AZT” value [18] was over 100 fold.
